Data from the NIST ThermoML archive (doi:10.1016/j.fluid.2014.09.014).

Experiment: refractive index (other wavelength) (dimensionless); xn = mol fraction of the nth substance listed
Conditions: 101 kPa, Liquid, Standard Abbe refractometry

CC(C)OC(C)C [diisopropyl ether] + CO
Conditions | refractive index
298.15 K, Wavelength=644 nm, x2 = 0.9233 | 1.33353
298.15 K, Wavelength=644 nm, x2 = 0.9253 | 1.33535
298.15 K, Wavelength=644 nm, x2 = 0.9527 | 1.33222
298.15 K, Wavelength=644 nm, x2 = 0.9773 | 1.32879
298.15 K, Wavelength=644 nm, x2 = 0.989 | 1.32761
298.15 K, Wavelength=644 nm, x2 = 0.9964 | 1.32621
298.15 K, Wavelength=706.5 nm, x2 = 0 | 1.36237
298.15 K, Wavelength=706.5 nm, x2 = 0.0423 | 1.36228
298.15 K, Wavelength=706.5 nm, x2 = 0.0424 | 1.36226
298.15 K, Wavelength=706.5 nm, x2 = 0.082 | 1.36224
298.15 K, Wavelength=706.5 nm, x2 = 0.0822 | 1.36226
298.15 K, Wavelength=706.5 nm, x2 = 0.1171 | 1.3621
298.15 K, Wavelength=706.5 nm, x2 = 0.1271 | 1.36211
298.15 K, Wavelength=706.5 nm, x2 = 0.1827 | 1.36175
298.15 K, Wavelength=706.5 nm, x2 = 0.2162 | 1.36228
298.15 K, Wavelength=706.5 nm, x2 = 0.251 | 1.36166
298.15 K, Wavelength=706.5 nm, x2 = 0.3298 | 1.36089
298.15 K, Wavelength=706.5 nm, x2 = 0.3577 | 1.35951
298.15 K, Wavelength=706.5 nm, x2 = 0.4497 | 1.35863
298.15 K, Wavelength=706.5 nm, x2 = 0.4525 | 1.35916
298.15 K, Wavelength=706.5 nm, x2 = 0.522 | 1.35694
298.15 K, Wavelength=706.5 nm, x2 = 0.5543 | 1.35655
298.15 K, Wavelength=706.5 nm, x2 = 0.609 | 1.35369
298.15 K, Wavelength=706.5 nm, x2 = 0.6529 | 1.35223
298.15 K, Wavelength=706.5 nm, x2 = 0.7504 | 1.34842
298.15 K, Wavelength=706.5 nm, x2 = 0.804 | 1.34426
298.15 K, Wavelength=706.5 nm, x2 = 0.807 | 1.34415
298.15 K, Wavelength=706.5 nm, x2 = 0.8727 | 1.33906
298.15 K, Wavelength=706.5 nm, x2 = 0.9233 | 1.33225
298.15 K, Wavelength=706.5 nm, x2 = 0.9253 | 1.33407
298.15 K, Wavelength=706.5 nm, x2 = 0.9773 | 1.32755
298.15 K, Wavelength=706.5 nm, x2 = 0.989 | 1.32641
298.15 K, Wavelength=706.5 nm, x2 = 0.9964 | 1.32502
303.15 K, Wavelength=40.47 nm, x2 = 0 | 1.37321
303.15 K, Wavelength=40.47 nm, x2 = 0.0423 | 1.37316
303.15 K, Wavelength=40.47 nm, x2 = 0.0424 | 1.37317
303.15 K, Wavelength=40.47 nm, x2 = 0.082 | 1.3731
303.15 K, Wavelength=40.47 nm, x2 = 0.0822 | 1.37318
303.15 K, Wavelength=40.47 nm, x2 = 0.1171 | 1.37301
303.15 K, Wavelength=40.47 nm, x2 = 0.1271 | 1.37303
303.15 K, Wavelength=40.47 nm, x2 = 0.1827 | 1.37268
303.15 K, Wavelength=40.47 nm, x2 = 0.2162 | 1.37251
303.15 K, Wavelength=40.47 nm, x2 = 0.251 | 1.3735
303.15 K, Wavelength=40.47 nm, x2 = 0.3298 | 1.37186
303.15 K, Wavelength=40.47 nm, x2 = 0.3577 | 1.37205
303.15 K, Wavelength=40.47 nm, x2 = 0.4497 | 1.3695
303.15 K, Wavelength=40.47 nm, x2 = 0.4525 | 1.37001
303.15 K, Wavelength=40.47 nm, x2 = 0.522 | 1.3677
303.15 K, Wavelength=40.47 nm, x2 = 0.5543 | 1.36716
303.15 K, Wavelength=40.47 nm, x2 = 0.609 | 1.36428
303.15 K, Wavelength=40.47 nm, x2 = 0.6529 | 1.36277
303.15 K, Wavelength=40.47 nm, x2 = 0.7504 | 1.35877
303.15 K, Wavelength=40.47 nm, x2 = 0.804 | 1.35438
303.15 K, Wavelength=40.47 nm, x2 = 0.807 | 1.35432
303.15 K, Wavelength=40.47 nm, x2 = 0.8727 | 1.34909
303.15 K, Wavelength=40.47 nm, x2 = 0.9233 | 1.34198
303.15 K, Wavelength=40.47 nm, x2 = 0.9253 | 1.34381
303.15 K, Wavelength=40.47 nm, x2 = 0.9527 | 1.34063
303.15 K, Wavelength=40.47 nm, x2 = 0.9773 | 1.33704
303.15 K, Wavelength=40.47 nm, x2 = 0.989 | 1.33587
303.15 K, Wavelength=40.47 nm, x2 = 0.9964 | 1.33483
303.15 K, Wavelength=435.8 nm, x2 = 0 | 1.37022
303.15 K, Wavelength=435.8 nm, x2 = 0.0423 | 1.37019
303.15 K, Wavelength=435.8 nm, x2 = 0.0424 | 1.37022
303.15 K, Wavelength=435.8 nm, x2 = 0.082 | 1.37014
303.15 K, Wavelength=435.8 nm, x2 = 0.0822 | 1.37022
303.15 K, Wavelength=435.8 nm, x2 = 0.1171 | 1.37006
303.15 K, Wavelength=435.8 nm, x2 = 0.1271 | 1.37006
303.15 K, Wavelength=435.8 nm, x2 = 0.1827 | 1.36973
303.15 K, Wavelength=435.8 nm, x2 = 0.2162 | 1.36956
303.15 K, Wavelength=435.8 nm, x2 = 0.251 | 1.36955
303.15 K, Wavelength=435.8 nm, x2 = 0.3298 | 1.36893
303.15 K, Wavelength=435.8 nm, x2 = 0.3577 | 1.36912
303.15 K, Wavelength=435.8 nm, x2 = 0.4497 | 1.36661
303.15 K, Wavelength=435.8 nm, x2 = 0.4525 | 1.36711
303.15 K, Wavelength=435.8 nm, x2 = 0.522 | 1.36484
303.15 K, Wavelength=435.8 nm, x2 = 0.5543 | 1.36432
303.15 K, Wavelength=435.8 nm, x2 = 0.609 | 1.36149
303.15 K, Wavelength=435.8 nm, x2 = 0.6529 | 1.35999
303.15 K, Wavelength=435.8 nm, x2 = 0.7504 | 1.35604
303.15 K, Wavelength=435.8 nm, x2 = 0.804 | 1.35174
303.15 K, Wavelength=435.8 nm, x2 = 0.807 | 1.35168
303.15 K, Wavelength=435.8 nm, x2 = 0.8727 | 1.34651
303.15 K, Wavelength=435.8 nm, x2 = 0.9233 | 1.3395
303.15 K, Wavelength=435.8 nm, x2 = 0.9253 | 1.34132
303.15 K, Wavelength=435.8 nm, x2 = 0.9527 | 1.33817
303.15 K, Wavelength=435.8 nm, x2 = 0.9773 | 1.33466
303.15 K, Wavelength=435.8 nm, x2 = 0.989 | 1.33351
303.15 K, Wavelength=435.8 nm, x2 = 0.9964 | 1.33219
303.15 K, Wavelength=486.1 nm, x2 = 0 | 1.36687
303.15 K, Wavelength=486.1 nm, x2 = 0.0424 | 1.36682
303.15 K, Wavelength=486.1 nm, x2 = 0.082 | 1.36677
303.15 K, Wavelength=486.1 nm, x2 = 0.0822 | 1.36685
303.15 K, Wavelength=486.1 nm, x2 = 0.1171 | 1.36669
